Reference: patent US5643954A, “Method of preventing and alleviating stress in a healthy mammal in need thereof” (priority 1993, dated 1997)
Like-named read-outs stand apart in the source and are kept apart here.

Legend:
chronic emotional stress = details: 1 mg/kg tongue root; for 15% ethanol daily consumed: M ± m
Source text: It is commonly known that manipulations with animals (cell sampling, administration of substances, water included) are a unique stress factor and cause a prolonged state of excitement, disturbance, aggressiveness.

[1] = tested on: electrical-shock-caused paroxysms
Corazol twitches = assay: comparative interaction test with Corazol, rats; assay type: in vivo; details: M ± m
hexenal effects = details: M ± m
[2] = after dose, M ± m
hexenal sleep = assay: comparative interaction test with hexenal, rats; assay type: in vivo; details: M ± m
phenamine stereotypy = details: M ± m
[3] = tested on: guinea pig's ileum (acetylcholine); details: for Amplitude of concentration in % to control / Amplitude of concentration: acetylcholine; for Amplitude of concentration: M ± m
Experimental: (§1) Experiments were conducted in vivo on male mice weighing 18-22 g and male rats weighing 200-250 g, as well as in vitro on the isolated organs: a guinea pig's ileum and a rat's seminal effervesces.

[4] = tested on: rat's seminal effervesce (adrenaline); details: for Amplitude of concentration in % to control / Amplitude of concentration: adrenaline; for Amplitude of concentration: M ± m
Experimental: as §1

[5] = tested on: acute stress action (electric painful influence)
Source text: The test and control young rats were subjected to a single electric painful influence in a matter of a second ("electric floor" 59 hertz, 35 v). […] Sixty minutes after, the behaviour of animals was investigated in the "open field" test.

[6] = for Addition: after taking
Source text: A test permits evaluating the rate of counting-computing operations per unit time (in each and every minute), duration of execution of the task (time spent for adding 184 pairs of numbers), the number of mistakes, the speed of attention switching and the degree of weariness.

[7] = tested on: electric painful irritation; details: 60 min before experiment
[8] = taken once or regularly (14 days)
EEG = details: for Biopotential slow form amplitude / Expression of biopotential slow forms / Expression of pathologically acute waves and peaked oscillation / Expression of α-rhythm / Paroxysmal bursts / α-frequency / α-oscillation amplitude / β-rhythm amplitude / β-rhythm expression / β-rhythm, low-frequency expression: M
[9] = not given; remark: listed apart in the source
arecoline hyperkinesia = details: M ± m
[10] = for Number of errors per 500 symbols: M ± m
Experimental: Examination of the mental capacity dynamics of the tested was performed in two stages.

[11] = 40 mg/kg week-long introduction
[12] = 200 mg/kg single administration
[13] = after the exams, after taking, M ± m
[14] = lab conditions, after taking, after testing, M ± m
[15] = 30 min after taking the claimed preparation
[16] = taken 30 minutes before an exam
[17] = week's fourth day, after classes
[18] = week's fourth day, before classes, after dose
[19] = week's second day, after classes
[20] = week's second day, before classes, after dose

## aminoacetic acid [claimed preparation]
Chronic emotional stress
  alcohol motivation: considerably reduces it
Chronic emotional stress; 1 week
  15% ethanol daily consumed: 3.6 ± 0.3 mL
Chronic emotional stress; 2 week
  15% ethanol daily consumed: 4.0 ± 0.3 mL
Chronic emotional stress; 3 week
  15% ethanol daily consumed: 2.3 ± 0.3 mL
Chronic emotional stress; 4 week
  15% ethanol daily consumed: 2.7 ± 0.2 mL
[1]; 2 mg/kg single administration
  Maximal electric shock death of animal: 70%
  Maximal electric shock tonico-extensor phase: 100%
[1]; 2 mg/kg week-long introduction
  Maximal electric shock death of animal: 60%
  Maximal electric shock tonico-extensor phase: 100%
[1]; 40 mg/kg single administration
  Maximal electric shock death of animal: 40%
  Maximal electric shock tonico-extensor phase: 100%
[1]; [11]
  Maximal electric shock death of animal: 40%
  Maximal electric shock tonico-extensor phase: 100%
[1]; 80 mg/kg single administration
  Maximal electric shock death of animal: 40%
  Maximal electric shock tonico-extensor phase: 100%
[1]; [12]
  Maximal electric shock death of animal: 70%
  Maximal electric shock tonico-extensor phase: 100%
[1]; in words
  activity towards electrical-shock-caused paroxysms: inactive towards electrical-shock- caused paroxysms
Corazol twitches; 20 mg/kg
  Corazol twitches, latent period: 41.0 ± 0.3 min
Corazol twitches; 80 mg/kg
  Corazol twitches, latent period: 45.0 ± 0.9 min
Corazol twitches; 200 mg/kg
  Corazol twitches, latent period: 42.5 ± 0.7 min
Hexenal effects; 2 mg/kg
  hexenal duration of sleep: 36.0 ± 1.8 min
  hexenal latent period: 4.5 ± 0.3 min
Hexenal effects; 40 mg/kg
  hexenal duration of sleep: 32.0 ± 1.9 min
  hexenal latent period: 4.5 ± 0.6 min
Hexenal effects; 200 mg/kg
  hexenal duration of sleep: 28.0 ± 1.9 min
  hexenal latent period: 3.8 ± 0.7 min
[2]; after testing
  AMo/Δx: 94.8 ± 4.1
  Amo: 36.4 ± 2.2%
  Mo: 0.74 ± 0.03 s
  Δx: 0.38 ± 0.01 s
[2]; prior to tests
  AMo/Δx: 83.8 ± 4.0
  Amo: 32.0 ± 2.0%
  Mo: 0.75 ± 0.03 s
  Δx: 0.39 ± 0.01 s
Hexenal sleep; 2 mg/kg
  Hexanal sleep duration: 36.0 ± 1.8 min
Hexenal sleep; 40 mg/kg
  Hexanal sleep duration: 32.0 ± 1.9 min
Hexenal sleep; 200 mg/kg
  Hexanal sleep duration: 28.0 ± 1.9 min
Phenamine stereotypy; 2 mg/kg
  phenamine duration of stereotypy: 65.0 ± 2.5 min
  phenamine latent period: 110.0 ± 2.6 s
Phenamine stereotypy; 40 mg/kg
  phenamine duration of stereotypy: 62.0 ± 1.6 min
  phenamine latent period: 115.0 ± 1.5 s
Phenamine stereotypy; 200 mg/kg
  phenamine duration of stereotypy: 62.0 ± 2.1 min
  phenamine latent period: 120.0 ± 2.8 s
[3]; 1·10^-4 M, 100 µM
  Amplitude of concentration in % to control: 89%
[3]; 1·10^-4 M
  Amplitude of concentration: 97.0 ± 1.5 mm
[3]; 1·10^-5 M, 10 µM
  Amplitude of concentration in % to control: 99%
[3]; 1·10^-5 M
  Amplitude of concentration: 105.0 ± 1.8 mm
[3]; 1·10^-6 M, 1 µM
  Amplitude of concentration in % to control: 109%
[3]; 1·10^-6 M
  Amplitude of concentration: 116.0 ± 2.4 mm
[3]; in words
  antagonism with acetylcholine: without discovering antagonism with said acetylcholine
[4]; 1·10^-4 M, 100 µM
  Amplitude of concentration in % to control: 65,5%
[4]; 1·10^-4 M
  Amplitude of concentration: 45.0 ± 0.6 mm
[4]; 1·10^-5 M, 10 µM
  Amplitude of concentration in % to control: 83%
[4]; 1·10^-5 and 1·10^-4 M
  adrenoblocking action: weak and mild adrenoblocking action
[4]; 1·10^-6 M, 1 µM
  Amplitude of concentration in % to control: 94%
[4]; 1·10^-6 M
  Amplitude of concentration: 65.0 ± 1.2 mm
[4]; in words
  contracting responses to adrenaline: suppresses the contracting responses
[13]
  Arterial pressure, diastolic: 65.7 ± 1.5 mm Hg
  Arterial pressure, systolic: 112.8 ± 2.8 mm Hg
  Pulse frequency: 72.8 ± 2.3 spec./min.
Heightened nerve-psychic agitation, in words
  change in pulse rate and arterial pressure: eliminates a change in a pulse rate and arterial pressure
In vivo
  Arterial pressure, diastolic: 69.3 ± 1.3 mm Hg
  Arterial pressure, systolic: 110.2 ± 1.7 mm Hg
  Pulse frequency: 76.8 ± 1.4 spec./min.
[14]
  Arterial pressure, diastolic: 69.2 ± 1.1 mm Hg
  Arterial pressure, systolic: 107.7 ± 1.5 mm Hg
  Pulse frequency: 78.1 ± 1.4 spec./min.
[5]; 2 mg/kg on tongue root 20 min before electric painful influence
  Intersection of a floor's center: 0
[5]; 2 mg/kg on tongue root 20 min before electric painful influence, M ± m
  Defecation: 0.4 ± 0.28
[5]; preliminarily administered
  stress-protective effect: displays a stress-protective effect and considerably reduces on-stress-dependent excitement manifestations
[6]; 30 min after single dose
  cases with reduced time for adding up numbers: 79.5%
  number of errors in counting: diminishes twice
  reduction of time for adding up numbers: 1.5 to 2 min
[6]; [15]
  Number of mistakes: 1
  Those making mistakes: 40%
[6]; 30 min after taking the claimed preparation, M ± m
  Speed of addition: 52.0 ± 1.9 pair/min
[6]; alcoholic abstinence syndrome (2nd day), M ± m
  Addition: 32.0 ± 1.6 pair/min
[6]; remission period, M ± m
  Addition: 51.0 ± 1.8 pair/min
[7]
  emotional reaction (squeak): did not exert influence on an emotional reaction
  increase of aggression reaction threshold: 5±0.8 v
  number of fights: reduced the number of fights
  strengthening of motor component (jumps): 1-1.5 points
[8]
  weariness, irritation and internal unrest: weariness, irritation and internal unrest significantly abate
EEG; 1,5 hrs after a dose
  EEG variation a): 2.89 arbitrary units
  EEG variation b): 2.79 arbitrary units
  Biopotential slow form amplitude: 41.40 mV
  Expression of biopotential slow forms: 2.85 arbitrary units
  Expression of pathologically acute waves and peaked oscillation: 1.71 arbitrary units
  Expression of α-rhythm: 4.89 arbitrary units
  Paroxysmal bursts: 2.21 arbitrary units
  α-frequency: 10.60 Hertz
  α-oscillation amplitude: 105.70 mV
  β-rhythm amplitude: 13.60 mV
  β-rhythm expression: 2.14 arbitrary units
  β-rhythm, low-frequency expression: 1.21 arbitrary units
EEG; after two-week course
  EEG variation a): 3.00 arbitrary units
  EEG variation b): 2.42 arbitrary units
  Biopotential slow form amplitude: 44.20 mV
  Expression of biopotential slow forms: 3.60 arbitrary units
  Expression of pathologically acute waves and peaked oscillation: 1.93 arbitrary units
  Expression of α-rhythm: 4.54 arbitrary units
  Paroxysmal bursts: 3.00 arbitrary units
  α-frequency: 10.40 Hertz
  α-oscillation amplitude: 95.00 mV
  β-rhythm amplitude: 16.40 mV
  β-rhythm expression: 2.07 arbitrary units
  β-rhythm, low-frequency expression: 1.29 arbitrary units
EEG; all examined EEG indicators, in words
  EEG-based activity: has nootropic activity
[9]; [16]
  marks exceeding those of the school year: 0.5-1 point
  students noting disappearance of fear and internal discomfort: 95%
[9]; taken before an exam, chiefly in maths
  good and excellent marks 4 and 5: 80%
Arecoline hyperkinesia; 2 mg/kg
  Arecoline hyperkinesia, duration: 16.5 ± 0.4 min
Arecoline hyperkinesia; 20 mg/kg
  Arecoline hyperkinesia, duration: 14.8 ± 1.2 min
Arecoline hyperkinesia; 40 mg/kg
  Arecoline hyperkinesia, duration: 13.8 ± 0.9 min
Arecoline hyperkinesia; 80 mg/kg
  Arecoline hyperkinesia, duration: 14.5 ± 0.9 min
Arecoline hyperkinesia; 200 mg/kg
  Arecoline hyperkinesia, duration: 15.6 ± 0.8 min
[10]; [17]
  Work without mistakes: 14.3%
  Number of errors per 500 symbols: 8.4 ± 1.2
[10]; [18]
  Work without mistakes: 28.6%
  Number of errors per 500 symbols: 7.6 ± 1.9
[10]; [19]
  Work without mistakes: 25.0%
  Number of errors per 500 symbols: 7.8 ± 1.8
[10]; [20]
  Work without mistakes: 16.5%
  Number of errors per 500 symbols: 6.5 ± 1.6
